By pIC50 is commonly meant the IC50 on a negative log10 scale, so that one unit is a factor of ten.

Consider 23 compounds from US20240300976A1, “COMPOUNDS AS MODULATORS OF ENDOPLASMIC RETICULUM AMINOPEPTIDASE 1 (ERAP1)” (GREY WOLF THERAPEUTICS LIMITED, priority 2020, published 2024).

The assay has as its target T1, ERAP1 (Homo sapiens, UniProt Q9NZ08).
T1 construct: Purified ERAP1(37-941)-10His (ERAP1); 10His (C)
Briefly: ERAP1 mediated hydrolysis of an amide substrate (10-mer inhibition assay), biochemical system. To be noted: 10-mer substrate, incubated at 23° C. for 1 h, excitation 279 nm and emission 355 nm; read-out: IC50 vs Decapeptide WRVYEKC(Dnp)ALK-acid (where Dnp is Dinitrophenyl maleimide) (10-mer). From the text: This peptide has minimal fluorescence as the N-terminal tryptophan residue's fluorescence is quenched by the dinitrophenol (DNP) residue within the peptide. However, as ERAP1 hydrolyses the N-terminal amide bond and tryptophan is released this internal quenching is lost and the reaction is monitored by the increase in tryptophan fluorescence over the course of the assay. For the purposes of this application this assay is referred to as the “1 Omer inhibition assay” and compound potencies are calculated and expressed as 1050 as would be familiar to a person skilled in the art.
Biological Assay 1: ERAP1 Mediated Hydrolysis of an Amide Substrate Measured in a Biochemical System
• 1× Assay buffer (AB): 25 mM Bis-tris propane, 0.05% w/v Hydroxypropylmethylcellulose pH 7.75 made with Optima grade water • Decapeptide WRVYEKC(Dnp)ALK-acid (where Dnp is Dinitrophenyl maleimide) (10-mer) • L-Leucine 7-amido-4-methylcoumarin (L-AMC) • Purified ERAP1(37-941)-10His (ERAP1)
12.5 μL ERAP1 enzyme in 1×AB was combined with 250 nL test compound in DMSO. 12.5 μL of either 240 μM L-AMC in 1×AB or 100 μM 10-mer in 1×AB was added to the reaction and incubated at 23° C. for 1 h. For detection, plates were read at excitation 365 nm and emission 442 nm (L-AMC) or excitation 279 nm and emission 355 nm (10-mer). Compound IC50 was determined using a 4-parameter equation.

pIC50: −log10 of the molar value.

T1 sequence (Q9NZ08 37-941): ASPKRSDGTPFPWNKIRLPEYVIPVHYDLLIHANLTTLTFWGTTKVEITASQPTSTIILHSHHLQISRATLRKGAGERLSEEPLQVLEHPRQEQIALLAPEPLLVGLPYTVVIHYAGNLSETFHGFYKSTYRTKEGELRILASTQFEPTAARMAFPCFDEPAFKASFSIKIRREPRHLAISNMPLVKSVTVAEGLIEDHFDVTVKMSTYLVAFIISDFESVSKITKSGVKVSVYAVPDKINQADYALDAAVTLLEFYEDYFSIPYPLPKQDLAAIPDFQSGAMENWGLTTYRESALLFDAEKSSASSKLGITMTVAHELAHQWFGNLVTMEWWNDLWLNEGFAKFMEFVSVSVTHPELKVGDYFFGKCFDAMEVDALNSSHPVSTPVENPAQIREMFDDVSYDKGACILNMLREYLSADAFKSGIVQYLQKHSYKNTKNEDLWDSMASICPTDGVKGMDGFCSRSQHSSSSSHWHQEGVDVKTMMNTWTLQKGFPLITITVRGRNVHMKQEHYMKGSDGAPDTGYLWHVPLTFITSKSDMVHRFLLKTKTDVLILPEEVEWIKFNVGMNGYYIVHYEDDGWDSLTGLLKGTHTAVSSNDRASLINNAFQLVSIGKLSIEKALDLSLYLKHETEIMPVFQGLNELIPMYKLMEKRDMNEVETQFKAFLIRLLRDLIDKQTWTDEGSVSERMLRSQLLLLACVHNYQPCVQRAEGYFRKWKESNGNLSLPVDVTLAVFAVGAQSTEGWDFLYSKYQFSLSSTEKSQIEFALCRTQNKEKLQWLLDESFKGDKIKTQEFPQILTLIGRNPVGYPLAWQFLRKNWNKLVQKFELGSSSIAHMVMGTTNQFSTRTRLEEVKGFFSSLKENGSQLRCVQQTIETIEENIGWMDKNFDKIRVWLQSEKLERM

`N#Cc1ccc2c(c1)NS(=O)(=O)c1cc(C(=O)O)ccc1OCCC1CCCCN21` (single isomer, unassigned) [Example 7, 2-cyano-7,8,9,9a,10,11-hexahydro-6H, 18H-dibenzo[b,f]pyrido[1,2-h][1]oxa[4]thia[5,8]diazacycloundecine-15-carboxylic acid 17,17-dioxide]: the pIC50 is less than 6.00.
As to `N#Cc1ccc2c(c1)NS(=O)(=O)c1cc(C(=O)O)ccc1OCCCC1CCCCN21` (single isomer, unassigned) [Example 8, 2-cyano-6,7,8,9,9a,10,11,12-octahydro-19H-dibenzo[b,f]pyrido[1,2-h][1]oxa[4]thia[5,8]diazacyclododecine-16-carboxylic acid 18,18-dioxide], the pIC50 is greater than 6.60.
Consider `N#Cc1ccc2c(c1)NS(=O)(=O)c1cc(C(=O)O)ccc1OCCCC1CCCCN21` (single isomer, unassigned) [Example 9, 2-cyano-6,7,8,9,9a,10,11,12-octahydro-19H-dibenzo[b,f]pyrido[1,2-h][1]oxa[4]thia[5,8]diazacyclododecine-16-carboxylic acid 18,18-dioxide], for which the pIC50 was greater than 6.60.
Take `N#Cc1ccc2c(c1)NS(=O)(=O)c1cc(C(=O)O)ccc1OCC1CCCCN21` (single isomer, unassigned) [Example 10, 8-cyano-12,13,14,15,15a,16-hexahydro-6H-dibenzo[b,f]pyrido[1,2-h][1,4,5,8]oxathiadiazecine-3-carboxylic acid 5,5-dioxide]: the pIC50 was greater than 6.60.
Take `N#Cc1ccc2c(c1)NS(=O)(=O)c1cc(C(=O)O)ccc1OCC1CCCCN21` (single isomer, unassigned) [Example 11, 8-cyano-12,13,14,15,15a,16-hexahydro-6H-dibenzo[b,f]pyrido[1,2-h][1,4,5,8]oxathiadiazecine-3-carboxylic acid 5,5-dioxide]: the negative logarithm of the IC50 (pIC50) is 6.00 to 6.60.
In the case of `N#Cc1ccc2c(c1)NS(=O)(=O)c1cc(C(=O)O)ccc1OCCCCC1CCCCN21` (single isomer, unassigned) [Example 12, 2-cyano-7,8,9,9a,10,11,12,13-octahydro-6H,20H-dibenzo[b,f]pyrido[1,2-h][1]oxa[4]thia[5,8]diazacyclotridecine-17-carboxylic acid 19,19-dioxide] it was 6.00 to 6.60.
In the case of `N#Cc1ccc2c(c1)NS(=O)(=O)c1cc(C(=O)O)ccc1OCCCCC1CCCCN21` (single isomer, unassigned) [Example 13, 2-cyano-7,8,9,9a,10,11,12,13-octahydro-6H,20H-dibenzo[b,f]pyrido[1,2-h][1]oxa[4]thia[5,8]diazacyclotridecine-17-carboxylic acid 19,19-dioxide] it was greater than 6.60.
With `N#Cc1cc2c(cc1Cl)N1CCCCC1COc1ccc(C(=O)O)cc1S(=O)(=O)N2` (single isomer, unassigned) [Example 16, 9-chloro-8-cyano-12,13,14,15,15a,16-hexahydro-6H-dibenzo[b,f]pyrido[1,2-h][1,4,5,8]oxathiadiazecine-3-carboxylic acid 5,5-dioxide], the negative logarithm of the IC50 (pIC50) is less than 6.00.
Regarding `N#Cc1cc2c(cc1Cl)N1CCCCC1COc1ccc(C(=O)O)cc1S(=O)(=O)N2` (single isomer, unassigned) [Example 17, 9-chloro-8-cyano-12,13,14,15,15a,16-hexahydro-6H-dibenzo[b,f]pyrido[1,2-h][1,4,5,8]oxathiadiazecine-3-carboxylic acid 5,5-dioxide], the negative-log IC50 (pIC50) is greater than 6.60.
With `CS(=O)(=O)c1ccc2c(c1)NS(=O)(=O)c1cc(C(=O)O)ccc1OCC1CCCCN21` (single isomer, unassigned) [Example 19, 8-(methylsulfonyl)-12,13,14,15,15a,16-hexahydro-6H-dibenzo[b,f]pyrido[1,2-h][1,4,5,8]oxathiadiazecine-3-carboxylic acid 5,5-dioxide], the pIC50 was greater than 6.60.
Take `CS(=O)(=O)c1ccc2c(c1)NS(=O)(=O)c1cc(C(=O)O)ccc1OCC1CCCCN21` (single isomer, unassigned) [Example 20, 8-(methylsulfonyl)-12,13,14,15,15a,16-hexahydro-6H-dibenzo[b,f]pyrido[1,2-h][1,4,5,8]oxathiadiazecine-3-carboxylic acid 5,5-dioxide]: the negative logarithm of the IC50 (pIC50) is less than 6.00.
On to `N#Cc1cc2c(cc1Cl)N1CCCCC1CCCCOc1ccc(C(=O)O)cc1S(=O)(=O)N2` (single isomer, unassigned) [Example 26, 3-chloro-2-cyano-7,8,9,9a,10,11,12,13-octahydro-6H, 20H-dibenzo[b,f]pyrido[1,2-h][1]oxa[4]thia[5,8]diazacyclotridecine-17-carboxylic acid 19,19-dioxide], for which the negative-log IC50 (pIC50) is greater than 6.60.
For `N#Cc1cc2c(cc1Cl)N1CCCCC1CCCCOc1ccc(C(=O)O)cc1S(=O)(=O)N2` (single isomer, unassigned) [Example 27, 3-chloro-2-cyano-7,8,9,9a,10,11,12,13-octahydro-6H, 20H-dibenzo[b,f]pyrido[1,2-h][1]oxa[4]thia[5,8]diazacyclotridecine-17-carboxylic acid 19,19-dioxide], the pIC50 is greater than 6.60.
Consider `N#Cc1ccc2c(c1)NS(=O)(=O)c1cc(C(=O)O)ccc1OC/C=C/CC1CCCCN21` (single isomer, unassigned) [Example 32, (E)-2-cyano-7,8,9,9a,10,13-hexahydro-6H, 20H-dibenzo[b,f]pyrido[1,2-h][1]oxa[4]thia[5,8]diazacyclotridecine-17-carboxylic acid 19,19-dioxide], for which the negative logarithm of the IC50 (pIC50) is greater than 6.60.
Turning to `N#Cc1ccc2c(c1)NS(=O)(=O)c1cc(C(=O)O)ccc1OC/C=C/CC1CCCCN21` (single isomer, unassigned) [Example 33, (E)-2-cyano-7,8,9,9a,10,13-hexahydro-6H, 20H-dibenzo[b,f]pyrido[1,2-h][1]oxa[4]thia[5,8]diazacyclotridecine-17-carboxylic acid 19,19-dioxide], the pIC50 was less than 6.00.
In the case of `N#Cc1cc2c(cc1F)N1CCCCC1COc1ccc(C(=O)O)cc1S(=O)(=O)N2` (single isomer, unassigned) [Example 37, 8-cyano-9-fluoro-12,13,14,15,15a,16-hexahydro-6H-dibenzo[b,f]pyrido[1,2-h][1,4,5,8]oxathiadiazecine-3-carboxylic acid 5,5-dioxide], the pIC50 was less than 6.00.
In the case of `N#Cc1cc2c(cc1F)N1CCCCC1COc1ccc(C(=O)O)cc1S(=O)(=O)N2` (single isomer, unassigned) [Example 38, 8-cyano-9-fluoro-12,13,14,15,15a,16-hexahydro-6H-dibenzo[b,f]pyrido[1,2-h][1,4,5,8]oxathiadiazecine-3-carboxylic acid 5,5-dioxide], the pIC50 was greater than 6.60.
Turning to `CS(=O)(=O)c1cc2c(cc1F)N1CCCCC1COc1ccc(C(=O)O)cc1S(=O)(=O)N2` (single isomer, unassigned) [Example 39, 9-fluoro-8-(methylsulfonyl)-12,13,14,15,15a,16-hexahydro-6H-dibenzo[b,f]pyrido[1,2-h][1,4,5,8]oxathiadiazecine-3-carboxylic acid 5,5-dioxide], the pIC50 is greater than 6.60.
Turning to `CS(=O)(=O)c1cc2c(cc1F)N1CCCCC1COc1ccc(C(=O)O)cc1S(=O)(=O)N2` (single isomer, unassigned) [Example 40, 9-fluoro-8-(methylsulfonyl)-12,13,14,15,15a,16-hexahydro-6H-dibenzo[b,f]pyrido[1,2-h][1,4,5,8]oxathiadiazecine-3-carboxylic acid 5,5-dioxide], the negative-log IC50 (pIC50) is less than 6.00.
For `N#Cc1cc2c(cc1F)N1CCCCC1CCCOc1ccc(C(=O)O)cc1S(=O)(=O)N2` (single isomer, unassigned) [Example 41, 2-cyano-3-fluoro-6,7,8,9,9a,10,11,12-octahydro-19H-dibenzo[b,f]pyrido[1,2-h][1]oxa[4]thia[5,8]diazacyclododecine-16-carboxylic acid 18,18-dioxide], the pIC50 is greater than 6.60.
Under `N#Cc1cc2c(cc1F)N1CCCCC1CCCOc1ccc(C(=O)O)cc1S(=O)(=O)N2` (single isomer, unassigned) [Example 42, 2-cyano-3-fluoro-6,7,8,9,9a,10,11,12-octahydro-19H-dibenzo[b,f]pyrido[1,2-h][1]oxa[4]thia[5,8]diazacyclododecine-16-carboxylic acid 18,18-dioxide] stands greater than 6.60; under `CS(=O)(=O)c1cc2c(cc1F)N1CCCCC1CCCCOc1ccc(C(=O)O)cc1S(=O)(=O)N2` (single isomer, unassigned) [Example 43, 3-fluoro-2-(methylsulfonyl)-7,8,9,9a,10,11,12,13-octahydro-6H, 20H-dibenzo[b,f]pyrido[1,2-h][1]oxa[4]thia[5,8]diazacyclotridecine-17-carboxylic acid 19,19-dioxide], greater than 6.60.
Take `CS(=O)(=O)c1cc2c(cc1F)N1CCCCC1CCCCOc1ccc(C(=O)O)cc1S(=O)(=O)N2` (single isomer, unassigned) [Example 44, 3-fluoro-2-(methylsulfonyl)-7,8,9,9a,10,11,12,13-octahydro-6H, 20H-dibenzo[b,f]pyrido[1,2-h][1]oxa[4]thia[5,8]diazacyclotridecine-17-carboxylic acid 19,19-dioxide]: the pIC50 is 6.00 to 6.60.
